The results in this text go back to PMC12707346, “Discovery and validation of small molecule stabilizers of mutant triose phosphate isomerase (TPI) as potential lead candidates for TPI deficiency” (SLAS discovery : advancing life sciences R & D, 2025).

Series [1] concerns the target TPI^E105D-GFP (mutant TPI-GFP) (Homo sapiens, UniProt P60174, E105D). The series is described as follows: HeLa TPI^E105D-GFP-HR high-content assay: mutant TPI-GFP levels. It is filed as cell-based. Particulars: HeLa TPI^E105D-GFP-HR cells. The protocol: HeLa cells stably expressing TPI-E105D-eGFP were generated as previously described. A construct with the EF1 promoter driving HyperRed protein expression was generated using a HyperRed clone (Addgene # 48,249 [10], and standard cloning techniques. The Ef1-HyperRed lentivirus was made commercially (Alstem Bio). Lenti-virus transduction of TPI-E105D-eGFP lines was performed to generate stable cells co-expressing both GFP-tagged mutant TPI (E105D variant) and the HyperRed ROS biosensor. Cells were sorted by flow cytometry to collect a population of cells that expressed intermediate levels of GFP.
(§1) HeLa TPI^E105D-GFP-HR cells were subjected to a formal assay development paradigm according to the NIH assay guidance manual. Specifically, we evaluated optimal cell seeding, DMSO tolerance, luminespib positive control dose-response and timing, and, for live cell assays, signal stability in the presence of Hoechst […] (not shown; cf). Briefly, cells were plated in collagen-coated 384 well microplates (Revvity PhenoPlates) and allowed to attach overnight. Cells were treated with test agents for various lengths of time, nuclei stained with Hoechst 33342, and imaged on an OPERA Phenix Plus high content reader (Revvity, inc., Waltham, MA) with a 20x air objective and laser lines and emission filters for Hoechst/DAPI (ex405/em435–480 nm), GFP (ex488/em500–550 nm), and Cy3 (ex561/em570–630 nm). Images were archived and analyzed in Harmony 5.1. (Revvity) for GFP levels, cell numbers, nuclear morphology, and ROS levels. The final conditions of the optimized assay were 4000 cells plated, a 48 h exposure to test agents in 1 % DMSO, and for live cells, an assay window of up to 6 h in the presence of Hoechst 33342. Cells were subsequently fixed with 4 % formaldehyde for possible re-imaging.
(§2) Hits from the high-throughput screens that passed above selection citeria were obtained from commercial vendors as powders and reconstituted to 10 mM DMSO stock solutions. Ten-point dose-response gradients (in triplicate) were created by serially diluting 25 μL of 10 mM stocks into 25 μL DMSO with an Agilent Bravo liquid handler. Multiple sets of daughter plates were stamped out by transferring 2 μL stock solution to fresh microplates. Plates were sealed and stored at −20 °C. For experiments, cells were plated into thin bottom 384-well collagen-coated Phenoplates and allowed to adhere overnight in a humidified 37 °C, 5 % CO2 incubator. The next day, compound daughter plates were thawed and reconstituted in 63 μL medium creating a 3X treatment plate. Positive and negative controls were added to the treatment plates (n = 32 each), for a final concentration range of […] (1 % DMSO). Compounds that confirmed in dose-response were repurchased from Molport (Riga, Latvia) and structure and purity confirmed by LC/MS and/or ^1H NMR. Selected agents were resynthesized at gram scale by Enamine US Inc. (Monmouth Jct., NJ). A list of compounds used for follow-up studies is presented in Supplemental Table 1 and Supplemental Table 2. For HeLa cells, incubation, processing steps, fixation, imaging, and analysis are described in the HTS section; for immunofluorescence studies in TPI-Df patient cells, see section below.

Series [2] relates to HeLa TPI^E105D-GFP-HR cells. The series is described as follows: HeLa TPI^E105D-GFP-HR high-content assay: markers of cellular toxicity (nucleus size, ROS, cell loss). Format: cell-based, human. The method, then: as §1
HCS screening data were uploaded to Spotfire (Ver 14.0.2, Revvity) for analysis. A hit selection paradigm that included gates for expression of TPI-GFP, cell densities, nuclear morphology, and ROS levels was established to identify initial hits. Archived scan images of selected hits were then subjected to visual inspection. Compounds that caused clear and unambiguous elevation of GFP, no cellular or nuclear morphology changes, and no visibly elevated ROS were prioritized for secondary assays. Also prioritized were hits that were structurally similar or had analogs in the library that were devoid of activity. The final list of compounds was subjected to cheminformatics filtering for compounds with favorable “drug-like” physicochemical properties using the FAFDrugs4 server at https://fafdrugs4.rpbs.univ-paris-diderot.fr/ [16]. Specifically, this included no pan assay interference compounds (PAINS A,B,C) or toxicity flags, no Lipinski violations, and no potential reactivity or promiscuity using the lead-like filter in the Eli-Lilly MedChem Rules toolkit used for open drug discovery projects and the Pfizer 3/75 [18] and GSK 4/400 [19] physchem rules, which flag compounds for potential reactivity and liabilities in future optimization studies.
as §2

Sequence of TPI^E105D-GFP (mutant TPI-GFP) (P60174 2-249 E105D): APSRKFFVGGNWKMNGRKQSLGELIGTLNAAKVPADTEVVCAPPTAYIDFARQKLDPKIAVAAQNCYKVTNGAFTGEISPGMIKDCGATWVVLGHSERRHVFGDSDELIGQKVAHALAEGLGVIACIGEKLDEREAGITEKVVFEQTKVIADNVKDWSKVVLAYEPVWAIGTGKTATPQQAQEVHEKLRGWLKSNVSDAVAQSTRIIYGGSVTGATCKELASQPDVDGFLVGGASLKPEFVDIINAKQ

On to `COc1cc(C2NC(C(=O)O)CS2)ccc1OCc1ccccc1Cl` (stereo not drawn) [MolPort-002-712-392, O=C(O)C1NC(C2=CC(OC)=C(OCC3=CC=CC=C3Cl)C=C2)SC1], for which, in series [1], the “Notes: behaviour in dose-response (TPI-GFP)” value (“Notes: behaviour” for short) is listed as “small max response, only active at 100 µM”. For `NC(=O)c1cc2cc(F)ccc2[nH]1` [MolPort-000-928-743, O=C(N)C1=CC(C=C2F)=C(C=C2)N1], in series [1], the “Notes: behaviour” value is recorded as “small max response”. Moreover, the “toxicity profile (nuclear morphology, ROS, cell loss)” value in series [2] was “condensed nuclei and elevated ROS that mirrored TPI expression”. For the compound `O=C(N/N=C/c1ccc2c(c1)OCO2)C1CCN(Cc2ccc(Br)cc2)CC1` [MolPort-004-950-612, O=C(N/N=C/C1=CC=C2OCOC2=C1)C3CCN(CC4=CC=C(Br)C=C4)CC3], in series [1] (ten-point two-fold gradients), the “TPI-inducing activity / dose-response profile” value was “lacked TPI-inducing activity”. `COC(=O)c1ccc(NC(=S)Nc2ccccn2)cc1` [MolPort-002-264-226, S=C(NC1=CC=C(C=C1)C(OC)=O)NC2=CC=CC=N2]: the “toxicity profile (nuclear morphology, ROS, cell loss)” value in series [2] was “condensed nuclei and elevated ROS that mirrored TPI expression”. Turning to `Cc1ccc(C(=O)N2CCN3C(=O)c4ccccc4C23c2ccc(Cl)cc2)cc1` (stereo not drawn) [CID 3724239, reference compound], the “toxicity profile (nuclear morphology, ROS, cell loss)” value in series [2] is “pronounced cell loss, cellular morphology changes, and elevated ROS that correlated with GFP intensity”.

As to `CN(C)CCCNc1nc(-c2ccc(Cl)cc2)nc2ccccc12` [MolPort-000-694-510, ClC1=CC=C(C=C1)C2=NC3=CC=CC=C3C(NCCCN(C)C)=N2], the “EC50 from aggregated curves” value in series [1] (ten-point two-fold gradients, 48 h) is given as “incomplete curve”. For the same compound, the “Notes: toxicity” value in series [2] (dose-response) was “Highly toxic at 50 and 100µM”.

For `Cc1cccc(NC(=S)NN=C2CCCC2)c1` [MolPort-001-026-351, S=C(NC1=CC=CC(C)=C1)N/N=C2CCCC\2], the “Notes: behaviour” value in series [1] is on record as “occasional small max response. Thiosemicarbazone”. On the same count and under the same terms, next, `N#CCSc1nc(N)cc(-c2ccc(Br)cc2)c1C#N` [MolPort-004-949-632, Nc1cc(-c2ccc(Br)cc2)c(C#N)c(SCC#N)n1]: “green and red autofluorescent”.

`COc1ccc(NC(=O)/C=C/c2ccc(-c3ccccc3[N+](=O)[O-])o2)cc1` [MolPort-002-192-625, COC(C=C1)=CC=C1NC(/C=C/C2=CC=C(O2)C3=C(C=CC=C3)[N+]([O-])=O)=O]: the “Notes: behaviour” value in series [1] is listed as “steep Hill slope, small max response”. Besides, in series [2], the “toxicity profile (nuclear morphology, ROS, cell loss)” value was “condensed nuclei and elevated ROS that mirrored TPI expression”.

In the case of `O=C(N/N=C/c1ccccc1)c1ccn(Cc2ccc(Br)cc2)n1` [Molport-004-951-042, Brc1ccc(Cn2ccc(n2)C(=O)N\N=C\c2ccccc2)cc1], in series [1] (ten-point two-fold gradients), the “TPI-inducing activity / dose-response profile” value is recorded as “lacked TPI-inducing activity”. Regarding `O=C(N/N=C/c1ccc2c(c1)OCO2)c1ccn[nH]1` [Molport-001-897-405, O=C(N\N=C\c1ccc2OCOc2c1)c1ccn[nH]1], in series [1] (ten-point two-fold gradients), the “TPI-inducing activity / dose-response profile” value is given as “lacked TPI-inducing activity”. For the compound `Cn1c(=O)c2c(nc3n2CC(c2ccc(F)cc2)=NN3)n(C)c1=O` [MolPort-001-796-978, O=C(N(C)C1=C(C2=O)N3CC(C4=CC=C(F)C=C4)=NNC3=N1)N2C], the “Notes: behaviour” value in series [1] was “incomplete curve”. Regarding `O=C(N/N=C/c1ccc2c(c1)OCO2)c1ccn(Cc2ccc(Br)cc2)n1` [MolPort-004-951-015, O=C(N/N=C/C1=CC=C2OCOC2=C1)C(C=C3)=NN3CC(C=C4)=CC=C4Br], in series [1], the “Notes: behaviour” value was “Primary hit in CUMBRE screen: NMR and LC-MS not consistent with proposed structure. Resynthesized material is inactive”. For the same compound, in series [1] (ten-point two-fold gradients), the “TPI-inducing activity / dose-response profile” value is listed as “lacked TPI-inducing activity”.

For `COc1cccc(OCCSc2nc(=O)cc(C)[nH]2)c1` [MolPort-000-901-364, COC1=CC(OCCSC(N2)=NC(C=C2C)=O)=CC=C1], in series [2], the “toxicity profile (nuclear morphology, ROS, cell loss)” value is “condensed nuclei and elevated ROS that mirrored TPI expression”.
